Results published in publication PMC9977294, “A parasitic fungus employs mutated eIF4A to survive on rocaglate-synthesizing Aglaia plants” (eLife, 2023).
Where “and” joins values, the source holds several entries; their conditions need not be identical. Equal entries are not always repeated. Where two headings read alike, the source gives them in different places.

Columns and labels:
[1] = test system: Ophiocordyceps sp. BRM1 eIF4A iso4 WT Gly172; assay: Fluorescence polarization assay, FAM-labeled [AG]10 RNA and recombinant eIF4A; assay type: binding
Protocol: (§1) The fluorescence polarization assay was performed as previously described ([Chen et al., 2021]). […] After incubation at room temperature for 30 min, the mixture was transferred to a black 384-well microplate (Corning), and the fluorescence polarization was measured by an Infinite F-200 PRO (Tecan). Under ADP + Pi conditions, 1 mM ADP (Fujifilm Wako Chemicals) and 1 mM Na2HPO4 were used as substitutes for AMP-PNP. The data were fitted to the Hill equation to calculate Kd values and visualized by Igor Pro v8.01 (WaveMetrics).

[2] = target: Ophiocordyceps sp. BRM1 eIF4A iso4 Gly172His; assay: as above; assay type: binding; conditions: for Kd: [AG]10 10 nM, compound 50 µM, read-out: Kd between eIF4A protein and RNA
Protocol: as §1

[3] = [AG]10, ADP + Pi, RocA 50 µM, protein 50 μM
[4] = [AG]10 RNA, AMP-PNP, RocA, protein concentration 0.01 μM
[5] = [AG]10 RNA, AMP-PNP, RocA, protein concentration 0.05 μM
[6] = [AG]10 RNA, AMP-PNP, RocA, protein concentration 0.075 μM
[7] = [AG]10 RNA, AMP-PNP, RocA, protein concentration 0.1 μM
[8] = [AG]10 RNA, AMP-PNP, RocA, protein concentration 0.5 μM
[9] = [AG]10 RNA, AMP-PNP, RocA, protein concentration 0.75 μM
[10] = [AG]10 RNA, AMP-PNP, RocA, protein concentration 1 μM
[11] = [AG]10 RNA, AMP-PNP, RocA, protein concentration 5 μM
[12] = [AG]10 RNA, AMP-PNP, RocA, protein concentration 7.5 μM
[13] = [AG]10 RNA, AMP-PNP, RocA, protein concentration 10 μM
[14] = [AG]10 RNA, AMP-PNP, RocA, protein concentration 25 μM
[15] = [AG]10 RNA, AMP-PNP, RocA, protein concentration 50 μM
[16] = [AG]10, ADP + Pi, RocA 50 µM, protein 0.01 μM
[17] = [AG]10, ADP + Pi, RocA 50 µM, protein 0.05 μM
[18] = [AG]10, ADP + Pi, RocA 50 µM, protein 0.075 μM
[19] = [AG]10, ADP + Pi, RocA 50 µM, protein 0.1 μM
[20] = [AG]10, ADP + Pi, RocA 50 µM, protein 0.5 μM
[21] = [AG]10, ADP + Pi, RocA 50 µM, protein 0.75 μM
[22] = [AG]10, ADP + Pi, RocA 50 µM, protein 1 μM
[23] = [AG]10, ADP + Pi, RocA 50 µM, protein 25 μM

SMILES: COc1ccc([C@@]23Oc4cc(OC)cc(OC)c4[C@]2(O)[C@H](O)[C@H](C(=O)N(C)C)[C@H]3c2ccccc2)cc1 [RocA, rocaglamide A]
- fluorescence polarization, Mean [1, 3]: 0.4044
- fluorescence polarization, replicates [1, 3]: 0.4208 and 0.429
- Fluorescence polarization, Replicate 1-3 [1, 4]: -0.2186 and -0.2022 and -0.2268
- fluorescence polarization, Mean [1, 4]: -0.2158
- Fluorescence polarization, Replicate 1-3 [1, 5]: 0.2732 and -0.005465 and -0.2268
- fluorescence polarization, Mean [1, 5]: 0.01366
- Fluorescence polarization, Replicate 1-3 [1, 6]: -0.112 and -0.04645 and -0.2104
- fluorescence polarization, Mean [1, 6]: -0.123
- Fluorescence polarization, Replicate 1-3 [1, 7]: 0.3224 and -0.194 and -0.1612
- fluorescence polarization, Mean [1, 7]: -0.01093
- Fluorescence polarization, Replicate 1-3 [1, 8]: 0.2896
- fluorescence polarization, Mean [1, 8]: 0.2896
- Fluorescence polarization, Replicate 1-3 [1, 9]: 0.4699 and 0.2732 and 0.1585
- fluorescence polarization, Mean [1, 9]: 0.3005
- Fluorescence polarization, Replicate 1-3 [1, 10]: 0.4617 and 0.347 and 0.3306
- fluorescence polarization, Mean [1, 10]: 0.3798
- Fluorescence polarization, Replicate 1-3 [1, 11]: 0.5683 and 0.3962 and 0.429
- fluorescence polarization, Mean [1, 11]: 0.4645
- Fluorescence polarization, Replicate 1-3 [1, 12]: 0.5765 and 0.4372 and 0.4044
- fluorescence polarization, Mean [1, 12]: 0.4727
- Fluorescence polarization, Replicate 1-3 [1, 13]: 0.4372 and 0.3962 and 0.3224
- fluorescence polarization, Mean [1, 13]: 0.3852
- Fluorescence polarization, Replicate 1-3 [1, 14]: 0.6585 and 0.4372 and 0.4617
- fluorescence polarization, Mean [1, 14]: 0.5191
- Fluorescence polarization, Replicate 1-3 [1, 15]: 0.5929 and 0.4863 and 0.4699
- fluorescence polarization, Mean [1, 15]: 0.5164
- Kd ([2]; ADP + Pi (1 mM each)): 3900 ± 980 nM
- Kd ([2]; AMP-PNP 1 mM): 51 ± 9.1 nM
- fluorescence polarization, Mean [2, 16]: -0.1448
- fluorescence polarization, replicates [2, 16]: -0.04098 and -0.2377
- fluorescence polarization, Mean [2, 17]: -0.08743
- fluorescence polarization, replicates [2, 17]: -0.08197 and -0.02459
- fluorescence polarization, Mean [2, 18]: -0.06284
- fluorescence polarization, replicates [2, 18]: -0.05738 and -0.123 and -0.008197
- fluorescence polarization, Mean [2, 19]: -0.07923
- fluorescence polarization, replicates [2, 19]: -0.05738 and -0.08197 and -0.09836
- fluorescence polarization, Mean [2, 20]: 0.265
- fluorescence polarization, replicates [2, 20]: 0.2459 and 0.2541 and 0.2951
- fluorescence polarization, Mean [2, 21]: 0.2814
- fluorescence polarization, replicates [2, 21]: 0.3197 and 0.3443 and 0.1803
- fluorescence polarization, Mean [2, 22]: 0.4809
- fluorescence polarization, replicates [2, 22]: 0.4754 and 0.5 and 0.4672
- fluorescence polarization, replicates ([2]; [AG]10, ADP + Pi, RocA 50 µM, protein 5 μM): 0.459 and 0.6639
- fluorescence polarization, Mean ([2]; [AG]10, ADP + Pi, RocA 50 µM, protein 7.5 μM): 0.7978
- fluorescence polarization, replicates ([2]; [AG]10, ADP + Pi, RocA 50 µM, protein 10 μM): 0.5246 and 0.5902 and 0.582
- fluorescence polarization, Mean [2, 23]: 0.8743
- fluorescence polarization, replicates [2, 23]: 0.8197 and 0.877 and 0.9262
- fluorescence polarization, Mean [2, 3]: 1.003
- fluorescence polarization, replicates [2, 3]: 1.033 and 1.0082
- Fluorescence polarization, Replicate 1-3 [2, 4]: 0.06831 and 0.1421 and 0.06011
- fluorescence polarization, Mean [2, 4]: 0.09016
- Fluorescence polarization, Replicate 1-3 [2, 5]: 0.5929 and 0.5109 and 0.4781
- fluorescence polarization, Mean [2, 5]: 0.5273
- Fluorescence polarization, Replicate 1-3 [2, 6]: 0.5519 and 0.5601 (2×)
- fluorescence polarization, Mean [2, 6]: 0.5574
- Fluorescence polarization, Replicate 1-3 [2, 7]: 0.6093 and 0.6749 and 0.5519
- fluorescence polarization, Mean [2, 7]: 0.612
- Fluorescence polarization, Replicate 1-3 [2, 8]: 0.8716 (2×) and 0.806
- fluorescence polarization, Mean [2, 8]: 0.8497
- Fluorescence polarization, Replicate 1-3 [2, 9]: 0.8798 and 0.8634 and 0.9126
- fluorescence polarization, Mean [2, 9]: 0.8852
- Fluorescence polarization, Replicate 1-3 [2, 10]: 0.9536 and 0.9372 and 0.8716
- fluorescence polarization, Mean [2, 10]: 0.9208
- Fluorescence polarization, Replicate 1-3 [2, 11]: 0.9372 (2×) and 0.9044
- fluorescence polarization, Mean [2, 11]: 0.9262
- Fluorescence polarization, Replicate 1-3 [2, 12]: 0.8716 and 0.9126 and 0.9044
- fluorescence polarization, Mean [2, 12]: 0.8962
- Fluorescence polarization, Replicate 1-3 [2, 13]: 0.9536 and 0.929 and 0.8552
- fluorescence polarization, Mean [2, 13]: 0.9126
- Fluorescence polarization, Replicate 1-3 [2, 14]: 0.9372 and 1.027 and 0.9536
- fluorescence polarization, Mean [2, 14]: 0.9727
- Fluorescence polarization, Replicate 1-3 [2, 15]: 1.044 (2×) and 1.027
- fluorescence polarization, Mean [2, 15]: 1.038
